Laboratory results published in patent publication EP4570805A1, “TRICYCLIC COMPOUNDS AND MEDICAL USE THEREOF” (Chia Tai Tianqing Pharmaceutical Group Co., Ltd., priority 2022, dated 2024).
Read-outs that look alike come from different tables or passages of the source.

Assays:
[1] = In vitro liver microsomal stability, mouse; conditions: mouse liver microsome 0.5 mg/mL, 37 °C
Protocol: (§1) Liver microsome incubation samples (species: human, monkey, rat, and mouse) were prepared by mixing a PBS buffer (pH 7.4), a liver microsome solution (0.5 mg/mL), a test compound, and an NADPH + MgCl2 solution and incubated at 37 °C and 300 rpm for 1 h. Zero-hour samples were prepared by mixing a PBS buffer (pH 7.4), a liver microsome solution (0.5 mg/mL), and a test compound. An acetonitrile solution containing an internal standard was added to the samples, and the supernatants were prepared by protein precipitation, diluted, and then assayed by LC/MS/MS.

Capan-1 cells = assay: Inhibitory activity for Capan-1 cell proliferation (CCK-8); type: cell-based; conditions: Homo sapiens, CAPAN-1, 120 h, 5 days incubation
Method in brief: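 Capan-1 cells were seeded at 1.5 × 10^4 cells/mL and exposed to compound for 5 days. CCK-8 was added for 4 h, with absorbance read at 450 nm. IC50 came from a four-parameter dose-response fit.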

[2] = In vivo pharmacokinetics in mice; conditions: mouse, po, ICR mice, IG, 10 mg/kg; for MRT last: read-out: MRT(0-t)
Protocol: ICR mice weighing 20 g to 24 g were randomized into groups with 9 mice in each group after 3 to 5 days of acclimatization, and intragastric administration of the experimental compounds was performed at a dose of 10 mg/kg.
The test animals (ICR mice) were fasted for 12 h before administration and fed 4 h after administration, and were given free access to water before, after, and during the experiment.
After intragastric administration, about 0.1 mL of blood was collected via the orbital sinus at 0.25 h (15 min), 0.5 h (30 min), 1 h, 2 h, 4 h, 6 h, 8 h, and 10 h (each mouse was subjected to blood collection at 3 to 4 time points, with 3 mice per time point). Following anticoagulation with EDTA-K2, the blood samples were transferred to a centrifuge within 30 min and then centrifuged at 4000 rpm for 10 min at 4 °C to separate the plasma. All the plasma samples were collected and immediately stored at -20 °C for testing.
20 µL of the plasma sample to be tested and the standard curve sample were pipetted, and 400 µL of acetonitrile solution containing an internal standard (20 ng/mL) was added. The mixture was shaken and mixed well for 10 min, and centrifuged at 13000 rpm for 10 min. 50 µL of the supernatant was taken and diluted with 100 µL of ultrapure water. After being mixed well, 0.5 µL of the resulting sample was subjected to LC/MS/MS, and a chromatogram was recorded.
Oral exposure of the compounds of the present disclosure was evaluated by in vivo pharmacokinetic experiments in mice.

[3] = In vitro liver microsomal stability, human; type: in vitro ADME; conditions: human liver microsome 0.5 mg/mL, 37 °C
Source text: Table 2. Results for in vitro liver microsomal metabolic stability

AsPc-1 cells = assay: Inhibitory activity for AsPc-1 cell proliferation (CCK-8); type: cell-based, human; conditions: Homo sapiens, ASPC1, 72 h incubation
Protocol: AsPc-1 cells in a well-growing state were collected into a centrifuge tube, adjusted to a cell density of 3 × 10^4 cells/mL, and inoculated onto a 96-well plate (100 µL/well). The compounds were added using a nanoliter pipettor such that the final concentrations of the compounds were 5000 nM-0.31 nM (the addition was performed in duplicate). Meanwhile, a control was set. After 72 h of incubation in the cell incubator, the assay reagent CCK-8 (manufacturer: Dojindo Laboratories; 10 µL/well) was added. After 3 h of incubation in the cell incubator, the absorbance was measured at 450 nm on a PerkinElmer Envision microplate reader. A four-parameter analysis was performed, a dose-response curve was fitted, and IC50 was calculated.

[4] = microsomes, 1 h
Protocol: as §1

His-KRAS G12D (1-169) = target: T1, His-KRAS G12D (1-169) (Homo sapiens, UniProt P01116, G12D); assay: Nucleotide exchange assay (SOS1cat-mediated, HTRF); type: biochemical; conditions: room temperature, read-out: Nucleotide exchange inhibitory activity IC50
T1 construct: His-KRAS G12D (1-169)
Protocol: • 1. Reagents: His-KRAS G12D (1-169); SOS1^cat (564-1049); GDP (purchased from Sigma); Anti-6HIS-Cryptate (purchased from Cisbio); EDA-GTP-DY-647P1 (purchased from Jena Bioscience) • 2. Buffer preparation: • 1) assay buffer: HEPES pH 7.4, NaCl, MgCl2, DTT, BSA, and Igepal; • 2) KRAS G12D working solution: A KRAS G12D working solution containing 100 nM His-KRAS G12D and 2 nM Anti-6HIS-Cryptate was prepared using the assay buffer; • 3) SOS1^cat working solution: An SOS1^cat working solution containing 20 nM SOS1^cat and 200 nM EDA-GTP-DY-647P1 was prepared using the assay buffer; • 4) blank control working solution: A blank control solution containing 2 nM Anti-6HIS-Cryptate was prepared using the assay buffer. • 3. Testing procedure: The entire experimental process was completed at room temperature. Using a black clear-bottom 384-well plate, 5 µL of KRAS G12D working solution was added to each well for the experimental and negative groups, while 5 µL of blank control working solution was added to each well for the blank group. The plate was incubated at room temperature for 10 min. Then, the compounds (at an initial concentration of 100 µM, 8 concentration gradients by 1:2 serial dilution) were added to the experimental groups using an ultra microsyringe and incubated at room temperature for 30 min. Finally, 5 µL of SOS1^cat working solution was added to each well, and after incubation at room temperature for 15 min, signal values were detected at 665 nm/620 nm using a PerkinElmer Envision HTS multi-label plate reader. The inhibition rate was calculated by the following formula: inhibition rate (%) = (mean value of negative control group - mean value of experimental group)/(mean value of negative control group - mean value of blank group) × 100%. The curves were fitted using the four-parameter logistic model with the logarithm of the compound concentration as the abscissa and the inhibition rate as the ordinate, and IC 50 values were calculated.

T1 sequence (P01116 1-169 isoform P01116-2 G12D): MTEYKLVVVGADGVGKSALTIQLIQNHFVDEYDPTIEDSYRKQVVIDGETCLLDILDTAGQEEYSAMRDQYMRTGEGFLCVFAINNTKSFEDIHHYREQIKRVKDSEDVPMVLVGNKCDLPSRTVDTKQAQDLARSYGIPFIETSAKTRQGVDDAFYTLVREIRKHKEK

## C#Cc1c(F)ccc2cc(O)cc(-c3nc4c5c(nc(OCCCN(C)C)nc5c3F)N(C(C)c3cccnc3N)[C@@H](C)CO4)c12 (single isomer, unassigned) [Example 79]
[1]
  The remaining amount % (T = 60 min) (0.5 mg/mL) Mouse liver microsome: >60%
Capan-1 cells
  IC50: < 0.1 µM

## Cc1c(F)cc2[nH]ncc2c1-c1nc2c3c(nc(OC[C@@]45CCCN4C[C@H](F)C5)nc3c1F)N(C(C)c1cccnc1N)[C@@H](C)CO2 (single isomer, unassigned) [Example 85]
[2]; in vivo
  AUC(0-inf): 0.214 µg·h/mL
  AUC(0-t): 0.197 µg·h/mL
  Cmax: 0.0502 µg/mL
  Tmax: 0.25 h
  half-life: 2.77 h
  MRT last: 3.4 h
Capan-1 cells
  IC50: < 0.1 µM

## C#Cc1c(F)ccc2cccc(-c3nc4c5c(nc(OC[C@@H]6CCCN6C)nc5c3F)N(C(C)c3cccnc3N)[C@@H](C)CO4)c12 (single isomer, unassigned) [Example 87]
[2]; in vivo
  AUC(0-inf): 0.309 µg·h/mL
  AUC(0-t): 0.266 µg·h/mL
  Cmax: 0.049 µg/mL
  Tmax: 0.25 h
  half-life: 3.66 h
  MRT last: 4.93 h
Capan-1 cells
  IC50: < 0.1 µM

## C#Cc1c(F)ccc2cc(O)cc(-c3nc4c5c(nc(OCCN(C)C)nc5c3F)N(C(C)c3cccnc3N)[C@@H](C)CO4)c12 (single isomer, unassigned) [Example 95]
[1]
  The remaining amount % (T = 60 min) (0.5 mg/mL) Mouse liver microsome: >60%
Capan-1 cells
  IC50: < 0.1 µM

## C#Cc1c(F)ccc2cc(O)cc(-c3nc4c5c(nc(OCC67CCCN6CCC7)nc5c3F)N(C(C)c3cccnc3N)[C@@H](C)CO4)c12 (single isomer, unassigned) [Example 97]
[3]
  The remaining amount % (T = 60 min) (0.5 mg/mL) Human liver microsome: >40%
Capan-1 cells
  IC50: < 0.1 µM
AsPc-1 cells
  IC50: ≤ 0.1 µM

## C#Cc1c(F)ccc2cc(O)cc(-c3nc4c5c(nc(OC[C@@H]6CCN(C)C6)nc5c3F)N(C(C)c3cccnc3N)[C@@H](C)CO4)c12 (single isomer, unassigned) [Example 101]
[1]
  The remaining amount % (T = 60 min) (0.5 mg/mL) Mouse liver microsome: >60%
Capan-1 cells
  IC50: < 0.1 µM

## C#Cc1c(F)ccc2cc(O)cc(-c3nc4c5c(nc(O[C@H]6CCN(C)C6)nc5c3F)N(C(C)c3cccnc3N)[C@@H](C)CO4)c12 (single isomer, unassigned) [Example 103]
[1]
  The remaining amount % (T = 60 min) (0.5 mg/mL) Mouse liver microsome: >60%
Capan-1 cells
  IC50: < 0.1 µM

## C#Cc1c(F)ccc2cc(O)cc(-c3nc4c5c(nc(O[C@@H](C)[C@@H]6CCCN6C)nc5c3F)N(C(C)c3cccnc3N)[C@@H](C)CO4)c12 (single isomer, unassigned) [Example 107]
[3]
  The remaining amount % (T = 60 min) (0.5 mg/mL) Human liver microsome: >40%
Capan-1 cells
  IC50: < 0.1 µM

## C#Cc1c(F)ccc2cc(O)cc(-c3nc4c5c(nc(OC[C@H](C)N(C)C)nc5c3F)N(C(C)c3cccnc3N)[C@@H](C)CO4)c12 (single isomer, unassigned) [Example 111]
[4]
  The remaining amount % (T = 60 min) (0.5 mg/mL) Mouse liver microsome: >60%
Capan-1 cells
  IC50: < 0.1 µM

## C#Cc1c(F)ccc2cc(O)cc(-c3nc4c5c(nc(OCCN6CCC6)nc5c3F)N(C(C)c3cccnc3N)[C@@H](C)CO4)c12 (single isomer, unassigned) [Example 134]
[4]
  The remaining amount % (T = 60 min) (0.5 mg/mL) Mouse liver microsome: >60%
Capan-1 cells
  IC50: < 0.1 µM

## C#Cc1c(F)ccc2cc(O)cc(-c3nc4c5c(nc(OCCCN6CCNCC6)nc5c3F)N(C(C)c3cccnc3N)[C@@H](C)CO4)c12 (single isomer, unassigned) [Example 140]
[4]
  The remaining amount % (T = 60 min) (0.5 mg/mL) Mouse liver microsome: >60%
Capan-1 cells
  IC50: < 0.1 µM

## CC(c1cccnc1N)N1c2nc(OC[C@@H]3CCCN3C)nc3c(F)c(-c4cc(N)cc(Cl)c4C(F)(F)F)nc(c23)OC[C@@H]1C (single isomer, unassigned) [Example 162]
[3]
  The remaining amount % (T = 60 min) (0.5 mg/mL) Human liver microsome: >40%
[2]; plasma
  Cmax: 0.0384 µg/mL
  Tmax: 1 h
[2]; plasma, gavage parameters were fitted to 6 h
  AUC(0-t) at 6 h: 0.156 µg·h/mL
Capan-1 cells
  IC50: < 0.1 µM

## C#Cc1c(F)ccc2cc(O)cc(-c3nc4c5c(nc(OCC67CCCN6CC(F)C7)nc5c3F)N(C(C)C)CCO4)c12 (stereo not drawn) [Example 4]
Capan-1 cells
  IC50: 0.1 to 0.5 µM
AsPc-1 cells
  IC50: 0.5 to 0.999 µM
His-KRAS G12D (1-169)
  IC50: ≤ 0.1 µM

## C#Cc1c(F)ccc2cc(O)cc(-c3nc4c5c(nc(OC[C@@]67CCCN6C[C@H](F)C7)nc5c3F)N(CC(F)(F)F)CCO4)c12 [Example 8]
Capan-1 cells
  IC50: 0.1 to 0.5 µM
AsPc-1 cells
  IC50: 0.5 to 0.999 µM
His-KRAS G12D (1-169)
  IC50: ≤ 0.1 µM

## C#Cc1c(F)ccc2cc(O)cc(-c3nc4c5c(nc(OC[C@@]67CCCN6C[C@H](F)C7)nc5c3F)N([C@H]3C[C@@H]3N)CCO4)c12 [Example 16]
His-KRAS G12D (1-169)
  IC50: ≤ 0.1 µM

## C#Cc1c(F)ccc2cc(O)cc(-c3nc4c5c(nc(OC[C@@]67CCCN6C[C@H](F)C7)nc5c3F)N(C3CC(N)C3)CCO4)c12 (stereo partly drawn) [Example 17]
His-KRAS G12D (1-169)
  IC50: ≤ 0.1 µM

## C#Cc1c(F)ccc2cc(O)cc(-c3nc4c5c(nc(OCC67CCCN6CC(F)C7)nc5c3F)N(CC3(N(C)C)CC3)CCO4)c12 (stereo not drawn) [Example 22]
His-KRAS G12D (1-169)
  IC50: ≤ 0.1 µM

## C#Cc1c(F)ccc2cc(O)cc(-c3nc4c5c(nc(OCC67CCCN6CC(F)C7)nc5c3F)N(C3CCC(N(C)C)C3)CCO4)c12 (stereo not drawn) [Example 23]
His-KRAS G12D (1-169)
  IC50: 0.1 to 0.5 µM

## C#Cc1c(F)ccc2cc(O)cc(-c3nc4c5c(nc(OC[C@@]67CCCN6C[C@H](F)C7)nc5c3F)N(C[C@@H](C)N(C)C)CCO4)c12 [Example 24]
His-KRAS G12D (1-169)
  IC50: ≤ 0.1 µM

## C#Cc1c(F)ccc2cc(O)cc(-c3nc4c5c(nc(OC[C@@]67CCCN6C[C@H](F)C7)nc5c3F)N(C[C@H](C)N(C)C)CCO4)c12 [Example 25]
His-KRAS G12D (1-169)
  IC50: ≤ 0.1 µM

## C#Cc1c(F)ccc2cc(O)cc(-c3nc4c5c(nc(OC[C@@]67CCCN6C[C@H](F)C7)nc5c3F)N(C3CC(N(C)C)C3)CCO4)c12 (stereo partly drawn) [Example 26]
His-KRAS G12D (1-169)
  IC50: 0.1 to 0.5 µM
